Data reported in the NIST ThermoML archive (doi:10.1021/je1004092).
± gives the expanded uncertainty stated by the source.

What was measured:
[1] = Molar enthalpy of transition or fusion; details: Crystal; Adiabatic calorimetry
[2] = molar heat capacity at constant pressure; details: 101.33 kPa, Vacuum adiabatic calorimetry
[3] = Crystal; Adiabatic calorimetry

O=C(N[C@@H](Cc1ccccc1)C(=O)O)OCc1ccccc1 [((benzyloxy)carbonyl)-L-phenylalanine]
Molar enthalpy of transition or fusion [1]: 7.597 ± 0.00789 kcal/mol
molar heat capacity at constant pressure ([2]; 79.13 K, Crystal): 109.2 ± 0.7 J/K/mol
molar heat capacity at constant pressure ([2]; 81.17 K, Crystal): 111.4 ± 0.7 J/K/mol
molar heat capacity at constant pressure ([2]; 84.32 K, Crystal): 114.7 ± 0.7 J/K/mol
molar heat capacity at constant pressure ([2]; 87.26 K, Crystal): 119.7 ± 0.7 J/K/mol
molar heat capacity at constant pressure ([2]; 90.2 K, Crystal): 124.4 ± 0.8 J/K/mol
molar heat capacity at constant pressure ([2]; 93.15 K, Crystal): 128 ± 0.8 J/K/mol
molar heat capacity at constant pressure ([2]; 96.1 K, Crystal): 130.2 ± 0.8 J/K/mol
molar heat capacity at constant pressure ([2]; 99.05 K, Crystal): 132.6 ± 0.8 J/K/mol
molar heat capacity at constant pressure ([2]; 103.16 K, Crystal): 135.7 ± 0.9 J/K/mol
molar heat capacity at constant pressure ([2]; 107.22 K, Crystal): 140.4 ± 0.9 J/K/mol
molar heat capacity at constant pressure ([2]; 110.14 K, Crystal): 143.8 ± 0.9 J/K/mol
molar heat capacity at constant pressure ([2]; 113.08 K, Crystal): 146.3 ± 0.9 J/K/mol
molar heat capacity at constant pressure ([2]; 116.03 K, Crystal): 149.3 ± 0.9 J/K/mol
molar heat capacity at constant pressure ([2]; 119 K, Crystal): 150.1 ± 0.9 J/K/mol
molar heat capacity at constant pressure ([2]; 121.92 K, Crystal): 156.4 ± 1 J/K/mol
molar heat capacity at constant pressure ([2]; 124.86 K, Crystal): 158.7 ± 1 J/K/mol
molar heat capacity at constant pressure ([2]; 127.83 K, Crystal): 160.7 ± 1 J/K/mol
molar heat capacity at constant pressure ([2]; 130.81 K, Crystal): 161.9 ± 1 J/K/mol
molar heat capacity at constant pressure ([2]; 133.81 K, Crystal): 165.1 ± 1 J/K/mol
molar heat capacity at constant pressure ([2]; 136.78 K, Crystal): 168.9 ± 1 J/K/mol
molar heat capacity at constant pressure ([2]; 139.76 K, Crystal): 171.3 ± 1.1 J/K/mol
molar heat capacity at constant pressure ([2]; 142.78 K, Crystal): 172.5 ± 1.1 J/K/mol
molar heat capacity at constant pressure ([2]; 145.75 K, Crystal): 176.2 ± 1.1 J/K/mol
molar heat capacity at constant pressure ([2]; 148.7 K, Crystal): 181.2 ± 1.1 J/K/mol
molar heat capacity at constant pressure ([2]; 152.53 K, Crystal): 181.4 ± 1.1 J/K/mol
molar heat capacity at constant pressure ([2]; 156.3 K, Crystal): 185.2 ± 1.1 J/K/mol
molar heat capacity at constant pressure ([2]; 159.2 K, Crystal): 189.8 ± 1.2 J/K/mol
molar heat capacity at constant pressure ([2]; 162.16 K, Crystal): 191.9 ± 1.2 J/K/mol
molar heat capacity at constant pressure ([2]; 165.09 K, Crystal): 194.2 ± 1.2 J/K/mol
molar heat capacity at constant pressure ([2]; 168.09 K, Crystal): 197.5 ± 1.2 J/K/mol
molar heat capacity at constant pressure ([2]; 171.13 K, Crystal): 198.8 ± 1.2 J/K/mol
molar heat capacity at constant pressure ([2]; 174.16 K, Crystal): 201.1 ± 1.2 J/K/mol
molar heat capacity at constant pressure ([2]; 177.16 K, Crystal): 206.1 ± 1.3 J/K/mol
molar heat capacity at constant pressure ([2]; 180.14 K, Crystal): 209.9 ± 1.3 J/K/mol
molar heat capacity at constant pressure ([2]; 183.11 K, Crystal): 211.4 ± 1.3 J/K/mol
molar heat capacity at constant pressure ([2]; 186.05 K, Crystal): 211.8 ± 1.3 J/K/mol
molar heat capacity at constant pressure ([2]; 188.97 K, Crystal): 218.1 ± 1.3 J/K/mol
molar heat capacity at constant pressure ([2]; 191.95 K, Crystal): 219.3 ± 1.4 J/K/mol
molar heat capacity at constant pressure ([2]; 194.98 K, Crystal): 223 ± 1.4 J/K/mol
molar heat capacity at constant pressure ([2]; 198 K, Crystal): 226.3 ± 1.4 J/K/mol
molar heat capacity at constant pressure ([2]; 201 K, Crystal): 229.2 ± 1.4 J/K/mol
molar heat capacity at constant pressure ([2]; 204.65 K, Crystal): 233.5 ± 1.4 J/K/mol
molar heat capacity at constant pressure ([2]; 208.28 K, Crystal): 236.2 ± 1.5 J/K/mol
molar heat capacity at constant pressure ([2]; 211.23 K, Crystal): 238.9 ± 1.5 J/K/mol
molar heat capacity at constant pressure ([2]; 214.17 K, Crystal): 242 ± 1.5 J/K/mol
molar heat capacity at constant pressure ([2]; 217.09 K, Crystal): 248.7 ± 1.5 J/K/mol
molar heat capacity at constant pressure ([2]; 220 K, Crystal): 250.5 ± 1.5 J/K/mol
molar heat capacity at constant pressure ([2]; 222.89 K, Crystal): 252.5 ± 1.5 J/K/mol
molar heat capacity at constant pressure ([2]; 225.77 K, Crystal): 254.9 ± 1.6 J/K/mol
molar heat capacity at constant pressure ([2]; 228.72 K, Crystal): 256.4 ± 1.6 J/K/mol
molar heat capacity at constant pressure ([2]; 231.73 K, Crystal): 258 ± 1.6 J/K/mol
molar heat capacity at constant pressure ([2]; 234.73 K, Crystal): 260.1 ± 1.6 J/K/mol
molar heat capacity at constant pressure ([2]; 237.77 K, Crystal): 264.5 ± 1.6 J/K/mol
molar heat capacity at constant pressure ([2]; 240.78 K, Crystal): 266.6 ± 1.6 J/K/mol
molar heat capacity at constant pressure ([2]; 244.33 K, Crystal): 268.1 ± 1.6 J/K/mol
molar heat capacity at constant pressure ([2]; 247.89 K, Crystal): 270.2 ± 1.7 J/K/mol
molar heat capacity at constant pressure ([2]; 250.89 K, Crystal): 273.1 ± 1.7 J/K/mol
molar heat capacity at constant pressure ([2]; 253.88 K, Crystal): 277.4 ± 1.7 J/K/mol
molar heat capacity at constant pressure ([2]; 256.87 K, Crystal): 280.9 ± 1.7 J/K/mol
molar heat capacity at constant pressure ([2]; 259.83 K, Crystal): 282.4 ± 1.7 J/K/mol
molar heat capacity at constant pressure ([2]; 262.79 K, Crystal): 286.2 ± 1.8 J/K/mol
molar heat capacity at constant pressure ([2]; 265.74 K, Crystal): 290.4 ± 1.8 J/K/mol
molar heat capacity at constant pressure ([2]; 268.67 K, Crystal): 292.7 ± 1.8 J/K/mol
molar heat capacity at constant pressure ([2]; 271.58 K, Crystal): 297.9 ± 1.8 J/K/mol
molar heat capacity at constant pressure ([2]; 274.49 K, Crystal): 302.3 ± 1.8 J/K/mol
molar heat capacity at constant pressure ([2]; 277.38 K, Crystal): 301.8 ± 1.8 J/K/mol
molar heat capacity at constant pressure ([2]; 280.25 K, Crystal): 307.3 ± 1.9 J/K/mol
molar heat capacity at constant pressure ([2]; 283.12 K, Crystal): 314.7 ± 1.9 J/K/mol
molar heat capacity at constant pressure ([2]; 286.09 K, Crystal): 319.9 ± 2 J/K/mol
molar heat capacity at constant pressure ([2]; 289.05 K, Crystal): 323.8 ± 2 J/K/mol
molar heat capacity at constant pressure ([2]; 291.98 K, Crystal): 326.7 ± 2 J/K/mol
molar heat capacity at constant pressure ([2]; 295.01 K, Crystal): 330.1 ± 2 J/K/mol
molar heat capacity at constant pressure ([2]; 298.06 K, Crystal): 333 ± 2 J/K/mol
molar heat capacity at constant pressure ([2]; 301.11 K, Crystal): 336.5 ± 2.1 J/K/mol
molar heat capacity at constant pressure ([2]; 304.15 K, Crystal): 339.5 ± 2.1 J/K/mol
molar heat capacity at constant pressure ([2]; 307.19 K, Crystal): 340.6 ± 2.1 J/K/mol
molar heat capacity at constant pressure ([2]; 310.22 K, Crystal): 343.9 ± 2.1 J/K/mol
molar heat capacity at constant pressure ([2]; 313.24 K, Crystal): 348.3 ± 2.1 J/K/mol
molar heat capacity at constant pressure ([2]; 316.26 K, Crystal): 351.4 ± 2.1 J/K/mol
molar heat capacity at constant pressure ([2]; 319.27 K, Crystal): 353.7 ± 2.2 J/K/mol
molar heat capacity at constant pressure ([2]; 322.27 K, Crystal): 358.3 ± 2.2 J/K/mol
molar heat capacity at constant pressure ([2]; 325.27 K, Crystal): 362.5 ± 2.2 J/K/mol
molar heat capacity at constant pressure ([2]; 328.25 K, Crystal): 367.6 ± 2.2 J/K/mol
molar heat capacity at constant pressure ([2]; 331.24 K, Crystal): 371.4 ± 2.3 J/K/mol
molar heat capacity at constant pressure ([2]; 334.21 K, Crystal): 375.1 ± 2.3 J/K/mol
molar heat capacity at constant pressure ([2]; 337.17 K, Crystal): 380.6 ± 2.3 J/K/mol
molar heat capacity at constant pressure ([2]; 340.13 K, Crystal): 389.8 ± 2.4 J/K/mol
molar heat capacity at constant pressure ([2]; 343.07 K, Crystal): 396.6 ± 2.4 J/K/mol
molar heat capacity at constant pressure ([2]; 345.97 K, Crystal): 418.3 ± 2.6 J/K/mol
molar heat capacity at constant pressure ([2]; 348.88 K, Crystal): 508.8 ± 3.2 J/K/mol
molar heat capacity at constant pressure ([2]; 361.43 K, Liquid): 549.6 ± 3.3 J/K/mol
molar heat capacity at constant pressure ([2]; 364.56 K, Liquid): 551.9 ± 3.4 J/K/mol
molar heat capacity at constant pressure ([2]; 367.7 K, Liquid): 552.7 ± 3.4 J/K/mol
molar heat capacity at constant pressure ([2]; 370.83 K, Liquid): 553.6 ± 3.4 J/K/mol
molar heat capacity at constant pressure ([2]; 373.95 K, Liquid): 554.9 ± 3.4 J/K/mol
molar heat capacity at constant pressure ([2]; 377.05 K, Liquid): 555.6 ± 3.4 J/K/mol
molar heat capacity at constant pressure ([2]; 380.13 K, Liquid): 557.1 ± 3.4 J/K/mol
molar heat capacity at constant pressure ([2]; 383.21 K, Liquid): 558.5 ± 3.4 J/K/mol
molar heat capacity at constant pressure ([2]; 386.33 K, Liquid): 560.8 ± 3.4 J/K/mol
molar heat capacity at constant pressure ([2]; 389.43 K, Liquid): 562.4 ± 3.4 J/K/mol
molar heat capacity at constant pressure ([2]; 392.55 K, Liquid): 563.6 ± 3.4 J/K/mol
molar heat capacity at constant pressure ([2]; 395.55 K, Liquid): 564.8 ± 3.4 J/K/mol
Triple point temperature [3]: 359.48 ± 1 K
